Test [1] relates to lung cancer in patients with idiopathic pulmonary fibrosis. Briefly: Lung cancer prevention in idiopathic pulmonary fibrosis patients allocated to pirfenidone or non-pirfenidone group. To be noted: for Effect on risk of incidence of lung cancer: logistic regression analysis; for Accumulated incidence of lung cancer: FIG. 1. Format: in vivo, human. An excerpt:
Thus, the present inventors evaluated the cancer chemoprevention effect of pirfenidone in idiopathic pulmonary fibrosis patients who are said to have a high risk factor of carcinogenesis. […] This efficacy was not explained by its effectiveness on idiopathic pulmonary fibrosis, and is therefore a novel activity of pirfenidone.
87 in the pirfenidone group (83 idiopathic pulmonary fibrosis, four nonspecific interstitial pneumonia) and 232 in the non-pirfenidone group (213 idiopathic pulmonary fibrosis, 18 nonspecific interstitial pneumonia, and one patient of desquamative interstitial pneumonia). The patients in the pirfenidone group received pirfenidone for 12-75 months (an average of 27.9±14.7 months). As a result, the incidence of lung cancer in the pirfenidone group was 2, whereas in the non-pirfenidone group it was 49. The duration of observation period in the pirfenidone group was 65.5±42.6 months, whereas in the control group it was 57.1±37.5 months. In addition, among 73 deaths in the non-pirfenidone group, 11 (4.7%) patients died by lung cancer, whereas among 29 deaths in the pirifenidone group, one (1.2%) patient died by lung cancer.
The accumulated incidences of lung cancer in patients with idiopathic pulmonary fibrosis not treated with pirfenidone after 1, 5, and 10 years were 0.9%, 18.3%, and 26.8%, whereas in patients treated with pirfenidone after 1, 5, and 10 years the accumulated incidences of lung cancer were 0%, 2.5%, and 6.4%.
The risk factors of incidence of lung cancer were analyzed using logistic regression analysis. As for the variables, backgrounds such as age, sex, number of packs of cigarettes smoked per day by the number of years the person has smoked (pack year), current smoking, pulmonary emphysema, stage of idiopathic pulmonary fibrosis, lung functions (% vital capacity(VC), and forced expiratory volume in 1 second as percent of forced vital capacity; FEV 1%), respiratory function (carbon monoxide lung diffusing capacity; % DLCO), and arterial oxygen partial pressure (PAO2); home oxygen therapy (use/no use), pirfenidone (use/no use), prednisolone (use/no use), N-acetyl cysteine (use/no use) and so forth were used. […] Then, the factors affecting the incidence of lung cancer were analyzed using multivariate Cox proportion hazard mode. Four variables were found as affecting factors. […] This supports the lung cancer protective efficacy of pirfenidone.

The subject of test [2] is fibrosis caused by pancreatic cancer. Conditions: non-patent document 5; cited from earlier work.
For a further test, the system named is malignant glioma cells. To be noted: non-patent document 4; cited from earlier work.
Test [3] concerns acute exacerbation in patients with idiopathic pulmonary fibrosis. To be noted: pre-treatment; non-patent document 6; cited from earlier work.

In the case of `CC(=O)N[C@@H](CS)C(=O)O` [N-acetyl cysteine], in test [1] (use/no use), the “Effect on risk of incidence of lung cancer” value is reported as “significantly decrease the risk factors of incidence of lung cancer”.
`Cc1ccc(=O)n(-c2ccccc2)c1` [Pirfenidone, 5-methyl-1-phenyl-2-(1H)-pyridone]: the “Death by cancer (lung cancer), %” value in test [1] (87 patients in pirfenidone group) turned out to be 1.1%; in test [1] (87 patients in pirfenidone group, listed as pirifenidone), 1.2%. Further, the “Incidence of lung cancer, %” value in test [1] (87 patients in pirfenidone group, observation 65.5 ± 42.6 months, treatment 12-75 months) was determined as 2.3%. The “Accumulated incidence of lung cancer” value in test [1] (after 1 year) came to 0%; in test [1] (after 5 years), 2.5%; in test [1] (after 10 years) it was 6.4%. Besides, the “Effect on risk of incidence of lung cancer” value in test [1] (use/no use) is recorded as “significantly decrease the risk factors of incidence of lung cancer”. Besides, the “Effect on risk of lung cancer” value in test [1] (multivariate Cox proportion hazard model, in words) is recorded as “only factor decreasing the risk of lung cancer”. In addition, the “Hazard ratio, risk of lung cancer” value in test [1] (multivariate Cox proportion hazard model, use/no use) turned out to be 0.128. In test [2], the “Effect on fibrosis caused by pancreatic cancer” value was “inhibitory effects on fibrosis”. For the same compound, the “Proliferation of malignant glioma cells” value with malignant glioma cells was “inhibited proliferation”. The “Acute exacerbation caused by lung cancer surgery” value in test [3] is on record as “acute exacerbation was inhibited”.
